The source of these data is patent publication US20260115250A1, “METHODS OF TREATING AGE-RELATED MACULAR DEGENERATION” (Character Biosciences, Inc., priority 2022, published 2026).

Data set [1] has as its target T1, LDLR (Homo sapiens, UniProt P01130). As to the kind of experiment: LDLR binding (SPR), high surfactant preparation. The gist of the method:
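Multi-cycle kinetics fitted 1:1: peptide flowed at 30 μL/sec for 120 seconds over immobilised LDLR (amine coupling, CM5, 1000 RU) in running buffer HBS-P+ plus 1 mM CaCl2. Five concentrations per peptide, 1:3 serial from 5 μM; surface regenerated between cycles with 50 mM NaOH/100 mM EDTA.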
Target sequence in this assay (P01130 22-860): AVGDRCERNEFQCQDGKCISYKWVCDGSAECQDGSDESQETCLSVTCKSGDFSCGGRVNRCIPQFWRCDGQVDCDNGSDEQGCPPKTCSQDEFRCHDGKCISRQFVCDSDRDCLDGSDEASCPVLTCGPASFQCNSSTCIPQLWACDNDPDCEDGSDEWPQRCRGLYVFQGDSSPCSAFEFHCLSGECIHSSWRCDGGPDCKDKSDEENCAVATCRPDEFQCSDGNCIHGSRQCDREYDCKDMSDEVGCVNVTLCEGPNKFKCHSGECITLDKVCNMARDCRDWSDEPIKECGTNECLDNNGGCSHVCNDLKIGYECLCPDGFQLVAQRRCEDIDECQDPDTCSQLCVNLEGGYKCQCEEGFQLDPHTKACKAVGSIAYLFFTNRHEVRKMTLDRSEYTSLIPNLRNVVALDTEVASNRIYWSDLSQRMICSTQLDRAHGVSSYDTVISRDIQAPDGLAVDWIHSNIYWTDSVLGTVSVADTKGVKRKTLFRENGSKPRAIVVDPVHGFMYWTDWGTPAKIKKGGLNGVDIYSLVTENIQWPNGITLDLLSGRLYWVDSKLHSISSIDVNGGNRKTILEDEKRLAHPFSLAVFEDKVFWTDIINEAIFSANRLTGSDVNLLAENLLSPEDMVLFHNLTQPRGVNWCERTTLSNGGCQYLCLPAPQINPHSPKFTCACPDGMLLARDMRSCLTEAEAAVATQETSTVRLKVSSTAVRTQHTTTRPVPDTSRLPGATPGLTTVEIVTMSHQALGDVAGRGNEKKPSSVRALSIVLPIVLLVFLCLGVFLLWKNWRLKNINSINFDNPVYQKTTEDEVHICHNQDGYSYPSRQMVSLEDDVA

Data set [2] relates to C57BL/6J mice. Nature of the data set: tolerability testing in mice after intravitreal injection (H&E histopathology). It counts as in vivo, mouse. The following applies: IVT, 520 μM, seven days. The source says: Seven days following IVT injection, eyes were harvested and prepared for hematoxylin and eosin staining. A blinded veterinarian performed histopathological analysis of tissue slices to determine whether the peptides induced inflammation or retinal disruption.

Data set [3] can be described thus: DMPC solubility titration, 1 mM DMPC. Type of data set: biochemical. The following applies: 3.16-100 μM peptides, 15 minutes. Here is the method:
FIGS. 4A-4B illustrate a screening assay based on DMPC solubility, measured by reducing turbidity of DMPC liposome solutions, for a subset of the peptides in FIGS. 1B-1I. FIGS. 4A-4B illustrate DMPC solubility titration curves. Peptide stocks were diluted to 200 μM in H2O (a 2× solution) and serially diluted in H2O over 4 concentrations, then 50 μL of peptide solutions were distributed in triplicate into 96-well plates. A 2 mM solution of 1,2-dimyristoyl-sn-glycero-3-phosphocholine (DMPC) in H2O was prepared, and using a multichannel pipet, 50 μL DMPC solution was rapidly added to the plate. Peptide and lipid solutions were incubated at room temperature for 15 minutes with final concentrations of 3.16-100 μM peptides and 1 mM DMPC. After 15 minutes, absorbance was read on a plate reader at 405 nm. […] Data are presented as mean+SD over two runs. Non-linear regression was used to calculate EC50 values.

For data set [4], the system named is HMC3 cells. As to the kind of experiment: HMC3 cholesterol efflux. It counts as cell-based, human. The protocol: (§1) FIGS. 27A-27B and FIG. 28 illustrate HMC3 cholesterol efflux. Fully confluent 96-well plates of HMC3 cells were treated for 1 hour in serum-free EMEM containing 10 mM methyl-β-cyclodextrin, 100 μM cholesterol, and 25 μM BODIPY cholesterol. Cells were then washed and incubated overnight in serum free EMEM containing 1 μM LXR agonist GW3965, 2 μg/mL ACAT inhibitor, and 0.2% BSA (LXR Agonist treated), or serum-free EMEM containing 2 μg/mL ACAT inhibitor, and 0.2% BSA (Control). Cells were washed and incubated with 20 μM peptides diluted in serum-free Fluorobrite DMEM for 4 hours at 37° C. Media was transferred to a new 96-well plate and fresh serum-free Fluorobrite DMEM was placed on the cells. Media and cellular fluorescence were read on a Promega GloMax at 475 nm excitation, 500-550 emission. Fluorescence values were background corrected from no treatment conditions and percent efflux was calculated by the following equation: % efflux=(Media Fluorescence values)/(Media+Cell Fluorescence values). Data are presented as mean+SD over two runs per peptide.
as §1, with “FIGS. 30A-30J show” for “FIGS. 27A-27B and FIG. 28 illustrate”, “cholesterol efflux titration curves for the indicated peptides.” for “cholesterol efflux.”, “μM” for “μM LXR agonist”, “or serum free” for “or serum-free”, “with 0-100” for “with 20”, “peptides serially” for “peptides”

Data set [5] has as its target T1, LDLR. As to the kind of experiment: KD, Peptide (μM). The source says: Table printed on a drawing sheet, FIG. 24B
Title: Buffer: HBS + 0.005% P20
Head of the field: KD, Peptide (μM)
The patent's description of the figure: FIGS. 24A-24B are tables showing the binding kinetics results of LDLR binding assays (SPR), lipid-dependent binding with a low-surfactant preparation as described herein for select peptides shown in FIG. 1A-1I.
First copying reader's note: Continued from FIG. 24A; KD values are LDLR binding by SPR for the peptide alone and for its DMPC lipid complex, with the error given in the same cell after ±.
Where the first naming reader finds the target: description_of_the_figure: FIGS. 24A-24B are tables showing the binding kinetics results of LDLR binding assays (SPR)
Target sequence in this assay (P01130 22-860 limits assumed): as the sequence (P01130 22-860) above

The test system of data set [6] is ARPE-19 cells. Nature of the data set: ARPE-19 cell viability assay (Cell Titer Glo). The following applies: 100 μM peptide, 1.5 hours. Type of data set: cell-based, human. The protocol:
ARPE-19 cells were seeded in 96-well plates at 25,000 cells/well and allowed to adhere to the plate surface for at least 24 hours. Peptides were diluted in serum-free DMEM: F12 to a final concentration of 100 μM. Cells were washed, then incubated in 100 μM peptide solution for 1.5 hours at 37° C. Plates were brought to room temperature for 30 minutes, then washed with DPBS. Cells were incubated in a 1:1 mixture of DPBS and Cell Titer Glo 2.0 Reagent for 10 minutes at room temperature, then cell luminescence was read on a plate reader. Viability values were background corrected, and 0% viability is determined by luminescence values of cells treated with 1% Triton-X-100. Data are presented as mean+SD over two separate runs.
On the technique in general: ATP-based viability assays read luminescence as a measure of living cells.

Data set [7] in a line: DMPC solubility assay, 0.5 mM DMPC (turbidity reduction). Type of data set: biochemical. The following applies: FIGS. 2A-2D and 3A-3C. The gist of the method:
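Peptides (100 μM final, or 3.16-100 μM for titrations) incubated with 0.5 mM DMPC in water for 15 minutes at room temperature. Turbidity read as absorbance at 405 nm; EC50 from non-linear regression, mean+SD over two runs.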

The subject of data set [8] is HepG2 cells. Nature of the data set: HepG2 GAG dependent cholesterol import (with or without heparin). It counts as cell-based. The following applies: HepG2, 10 μM peptide, with or without 100 μg/mL heparin. The protocol: HepG2 cells were seeded on 96-well plates at 10,000 cells per well and grown to confluence. A 2× solution of 500 μM DMPC and 50 μM BODIPY-Cholesterol with or without 100 μg/mL heparin was prepared in serum free EMEM. Peptides were diluted to 20 μM in serum-free EMEM (a 2× solution). Peptides were added to lipid solution in equal parts (60 μL each) and incubated for 1 hour at 37° C. HepG2 cells were serum starved in serum-free EMEM for 1 hour at 37° C. Peptide: Lipid complexes (100 μL total volume per well) were transferred to HepG2 cells for 2 hours at 37° C. Cells were washed, fixed, and intracellular fluorescence was read on Promega GloMax at 475 nm excitation, 500-550 emission. Fluorescence values were background corrected from no treatment conditions. Data are presented ±SD for 2 runs.

Data set [9] is described as follows: peptide binding to non-oxidized and oxidized lipids (SPR). The following applies: immobilized peptide; RU normalized to DMPC. The protocol: FIGS. 25A-25O show peptide binding activity to non-oxidized and oxidized lipids via SPR for indicated peptides. Peptides were reconstituted to 50 μg/mL in 10 mM acetate buffer, pH 4.5 and immobilized to ˜200 RU on a CM5 chip via amine coupling. Non-oxidized lipids (DMPC & POPC) and oxidized lipids (POVPC & KOdiA-PC) were diluted to 100 µM in HBS-EP running buffer and exposed to the chip for binding (n=3) at a flow rate of […] for 120 seconds. The surface was regenerated with 20% EtOH. T-001 served as a positive control and T-031 served as a negative control on each chip. For each peptide, the RU response for all lipids was normalized to the DMPC RU values.

The target of data set [10] is T1, LDLR. Nature of the data set: lipid-dependent LDLR binding (SPR), single concentration. The following applies: 1 μM peptide with or without 25 μM DMPC. The protocol: Peptides were diluted in 1×HBS-N buffer with 1 mM CaCl2 to a final concentration of 1 μM and incubated with or without 25 μM DMPC for 1 hour at RT to form lipid complexes. Each peptide was tested in duplicate. LDLR was diluted to 10 μg/mL in 10 mM acetate buffer pH 4.5 and was immobilized (˜400RU) on a CM5 chip via amine coupling utilizing 1×HBS-P+ buffer with 1 mM CaCl2. Test peptides (with or without DMPC) were exposed to immobilized LDLR at a flow rate of […] for 120 seconds in HBS-N with 1 mM CaCl2. Between cycles the surface was regenerated with 3, 30 second injections of 10 mM NaOH and 100 mM EDTA. Data are plotted as max RU values, averaged from three separate runs.
Target sequence in this assay (P01130 22-860): as above

Ends that are not written are not given here. Peptide text beside a SMILES is read from it.

“YKDFGERVERALGRQLEMLGQSTEELRVRLASHLRKLRKRLLRDADDLQKRLAVYQA [T-112]” came in with a Kd in data set [1] of less than 10 µM. Also, the “in vivo tolerability (inflammation or retinal disruption)” value (shortened to “in vivo tolerability”) in data set [2] is on record as “all peptides except T-112 were well tolerated”.

Regarding “LKDFGERVARALREQFEDLGQSTEELRVRLASHLRKLRKRLLRDADDLQKRLAVYQA [T-114]”, the Kd in [1] was less than 10 µM. Besides, the “in vivo tolerability” value in data set [2] was “well tolerated”.

Regarding “REFRALFKELADYFRDAW [T-084, therapeutic peptide]”, the midpoint of the response in data set [3], the EC50, lay at 16.1 µM. The cholesterol efflux titration result in data set [4] (HMC3, 0-100 μM peptide, LXR agonist) is given as “concentration-dependent increase in cholesterol efflux”. Further, the “cholesterol efflux in the presence of LXR agonist” value in data set [4] (HMC3, 20 μM peptide, 4 hours) is reported as “greater cholesterol efflux”.

On to `CC(C)C[C@H](NC(=O)[C@H](C)NC(=O)[C@H](CCCNC(=N)N)NC(=O)[C@H](Cc1ccccc1)NC(=O)[C@H](CCCNC(=N)N)NC(=O)[C@H](CCC(=O)O)NC(=O)[C@H](Cc1c[nH]c2ccccc12)NC(=O)[C@H](C)NC(=O)[C@@H](N)CC(=O)O)C(=O)N[C@@H](Cc1ccccc1)C(=O)N[C@@H](CCCCN)C(=O)N[C@@H](CCC(=O)O)C(=O)N[C@@H](CC(C)C)C(=O)N[C@@H](C)C(=O)N[C@@H](CC(=O)O)C(=O)N[C@@H](Cc1ccc(O)cc1)C(=O)N[C@@H](Cc1ccccc1)C(=O)N[C@@H](CCCNC(=N)N)C(=O)O` [T-087] (H-DAWERFRALFKELADYFR-OH; N-terminus and C-terminus assumed), for which the “in vivo tolerability” value in data set [2] is on record as “well tolerated”.

`CC(C)C[C@H](NC(=O)[C@H](CCCNC(=N)N)NC(=O)[C@H](CC(=O)O)NC(=O)[C@@H](NC(=O)[C@H](CC(C)C)NC(=O)[C@H](CCCCN)NC(=O)[C@H](CC(=O)O)NC(=O)CNC(=O)[C@H](CC(=O)O)NC(=O)[C@H](CCCNC(=N)N)NC(=O)[C@H](CC(C)C)NC(=O)[C@H](CC(C)C)NC(=O)[C@H](CCCNC(=N)N)NC(=O)[C@H](CCCCN)NC(=O)[C@H](CCCNC(=N)N)NC(=O)[C@H](CC(C)C)NC(=O)[C@H](CCCCN)NC(=O)[C@H](CCCNC(=N)N)NC(=O)[C@H](CC(C)C)NC(=O)[C@@H](N)Cc1c[nH]cn1)C(C)C)C(=O)N[C@@H](C)C(=O)N[C@@H](CCC(=O)O)C(=O)N[C@@H](Cc1ccc(O)cc1)C(=O)N[C@H](C(=O)N[C@@H](C)C(=O)N[C@@H](CCCNC(=N)N)C(=O)N[C@@H](C)C(=O)N[C@@H](CCCCN)C(=O)N[C@@H](CCC(=O)O)C(=O)N[C@@H](C)C(=O)N[C@@H](Cc1ccccc1)C(=O)N[C@@H](CC(=O)O)C(=O)N[C@@H](CCCNC(=N)N)C(=O)O)C(C)C` [T-077] (H-HLRKLRKRLLRDGDKLVDRLAEYVARAKEAFDR-OH): the Kd in data set [5] was 33.2 ± 37.7 µM. Also, the ARPE-19 cell viability entry in data set [6] was “substantial change in viability”.

With `CC(C)C[C@H](NC(=O)[C@H](Cc1c[nH]cn1)NC(=O)[C@H](CO)NC(=O)[C@H](C)NC(=O)[C@@H](N)CC(C)C)C(=O)N[C@@H](CCCNC(=N)N)C(=O)N[C@@H](CCCCN)C(=O)N[C@@H](CC(C)C)C(=O)N[C@@H](CCCNC(=N)N)C(=O)N[C@@H](CCCCN)C(=O)N[C@@H](CCCNC(=N)N)C(=O)N[C@@H](CC(C)C)C(=O)N[C@@H](CC(C)C)C(=O)N[C@@H](CCCNC(=N)N)C(=O)N[C@@H](CC(=O)O)C(=O)N[C@@H](C)C(=O)N[C@@H](CC(=O)O)C(=O)N[C@@H](CC(=O)O)C(=O)O` [T-073], in [5], the Kd came out at 4.27 ± 0.19 µM.

“T-029: therapeutic peptide (HLRKLRKRLLRDGDKLCDRLAEYCARAKEAFDR)”: the DMPC solubilizing activity entry in [7] is “significant activity”. For the same compound, the “GAG dependence of cholesterol import” value in data set [8] is “rely on GAG binding for cholesterol import activity”. In addition, in data set [9], the “binding to oxidized lipids relative to DMPC” value is reported as “binding to at least one oxidized lipid that was equivalent or improved to binding against DMPC”. The “lipid-dependent LDLR binding (RU with lipid vs peptide alone)” value in data set [10] is recorded as “lipid-dependent LDLR binding activity”.

The Kd is a measure of binding affinity in units of concentration. Low readings indicate a tighter complex, high ones a looser complex. Usually EC50 stands for the midpoint of the concentration-response curve.
